Measured values reported in PMC6950218 (Journal of Medicinal Chemistry, 2011).
Read-outs that look alike come from different tables or passages of the source. Values belong to the compound of their own block, whether it stands above or below them.

Legend:
[1] = test system: Huh7; assay: Cytotoxicity Huh7; type: cell-based
[2] = test system: Ba/F3; assay: Cytotoxicity Ba/F3; type: cell-based
[3] = test system: CHO; assay: Cytotoxicity CHO; type: cell-based
[4] = test system: HEp2; assay: Cytotoxicity HEp2; type: cell-based
[5] = test system: HeLa; assay: Cytotoxicity HeLa; type: cell-based
[6] = mini-Ames test
[7] = Micronucleus test
[8] = test system: Caco-2; conditions: for Caco-2 A–B: apical to basolateral; for Caco-2 B–A: basolateral to apical
[9] = test system: P. falciparum strain 3D7; assay: Antimalarial proliferation inhibition assay; type: cell-based, Plasmodium falciparum; conditions: for IC50: mean of at least two experiments
[10] = test system: P. falciparum strain W2; assay: Antimalarial proliferation inhibition assay; type: cell-based, Plasmodium falciparum; conditions: mean of at least two experiments
[11] = not given; remark: listed apart in the source
[12] = not given; remark: listed apart in the source
[13] = not given; remark: listed apart in the source
[14] = Maximum tolerable dose test in rats; conditions: rats in vivo
[15] = Plasmodium falciparum, 3D7, read-out: P. falciparum strain IC50 3D7, resynthesized powders (data in brackets)
[16] = Plasmodium falciparum, W2, read-out: P. falciparum strain IC50 W2, resynthesized powders (data in brackets)
[17] = resynthesized powders (data in brackets)

PAMPA (% absorbed): 86 % absorbed
Caco-2 A–B [8]: 0.14 cm/s × 10^6
Caco-2 B–A [8]: 1.03 cm/s × 10^6
Compound: CC(C)(N)C(=O)N1CCn2c(nc(-c3ccc(F)cc3)c2Nc2ccc(F)c(F)c2)C1 [Compound 30, 2-Amino-1-(3-(3,4-difluorophenylamino)-2-(4-fluorophenyl)-5,6-dihydroimidazo[1,2-a]pyrazin-7(8H)-yl)-2-methylpropan-1-one]
cytotoxicity TC50 Huh7 [1]: greater than 12 μM
cytotoxicity TC50 Ba/F3 [2]: greater than 12 μM
cytotoxicity TC50 CHO [3]: greater than 12 μM
cytotoxicity TC50 HEp2 [4]: greater than 12 μM
cytotoxicity TC50 HeLa [5]: greater than 12 μM
mini-Ames test [6]: negative
micronucleus test [7]: negative

Compound: NCC(=O)N1CCn2c(nc(-c3ccccc3)c2Nc2ccc3c(c2)OCO3)C1 [Compound 1a, 2-Amino-1-(3-(benzo[d][1,3]dioxol-5-ylamino)-2-phenyl-5,6-dihydroimidazo[1,2-a]pyrazin-7(8H)-yl)ethanone]
IC50 [9, 15]: 460 nM
IC50 [10, 16]: 473 nM
cyotoxicity Huh7 ([1]; HTS DMSO stock solutions): > 10 µM
cyotoxicity Huh7 [1, 17]: > 100 µM

PAMPA (% absorbed): 52 % absorbed
Caco-2 A–B [8]: 0.70 cm/s × 10^6
Caco-2 B–A [8]: 2.55 cm/s × 10^6
Compound: NCC(=O)N1CCn2c(nc(-c3ccc(F)cc3)c2Nc2ccc(F)cc2)C1 [Compound 5, 2-Amino-1-(2-(4-fluorophenyl)-3-(4-fluorophenylamino)-5,6-dihydroimidazo[1,2-a]pyrazin-7(8H)-yl)ethanone]
fold more potent than the original hit compound 1a [9]: 4 fold

PAMPA (% absorbed): 52 % absorbed
Caco-2 A–B [8]: 0.44 cm/s × 10^6
Caco-2 B–A [8]: 1.25 cm/s × 10^6
Compound: NCC(=O)N1CCn2c(nc(-c3ccc(F)cc3)c2Nc2ccc(Cl)cc2)C1 [Compound 27, 2-Amino-1-(3-(4-chlorophenylamino)-2-(4-fluorophenyl)-5,6-dihydroimidazo[1,2-a]pyrazin-7(8H)-yl)ethanone]

PAMPA (% absorbed): 94 % absorbed
Caco-2 A–B [8]: 0.84 cm/s × 10^6
Caco-2 B–A [8]: 0.87 cm/s × 10^6
Compound: CC(C)(N)C(=O)N1CCn2c(nc(-c3ccc(F)cc3)c2Nc2ccc(Cl)c(F)c2)C1 [Compound 32, 2-Amino-1-(3-(4-chloro-3-fluorophenylamino)-2-(4-fluorophenyl)-5,6-dihydroimidazo[1,2-a]pyrazin-7(8H)-yl)-2-methylpropan-1-one]

PAMPA (% absorbed): 89 % absorbed
Caco-2 A–B [8]: 1.46 cm/s × 10^6
Caco-2 B–A [8]: 1.86 cm/s × 10^6
Compound: CC(C)(N)C(=O)N1CCn2c(nc(-c3ccc(F)cc3)c2Nc2ccc(Cl)cc2)C1 [Compound 28, 2-Amino-1-(3-(4-chlorophenylamino)-2-(4-fluorophenyl)-5,6-dihydroimidazo[1,2-a]pyrazin-7(8H)-yl)-2-methylpropan-1-one]

Compound: CC(C)CC(N)C(=O)N1CCn2c(nc(-c3ccccc3)c2Nc2ccc3c(c2)OCO3)C1 (stereo not drawn) [Compound 1c, 2-Amino-1-(3-(benzo[d][1,3]dioxol-5-ylamino)-2-phenyl-5,6-dihydroimidazo[1,2-a]pyrazin-7(8H)-yl)-4-methylpentan-1-one]
IC50 [9, 15]: 30 nM
IC50 [10, 16]: 29 nM
cyotoxicity Huh7 ([1]; HTS DMSO stock solutions): > 10 µM
cyotoxicity Huh7 [1, 17]: 42 µM

PAMPA (% absorbed): low
Caco-2 A–B [8]: 0.99 cm/s × 10^6
Caco-2 B–A [8]: 2.99 cm/s × 10^6
hepatic microsome metabolic stability (extraction ratio) mouse [11]: 0.21
hepatic microsome metabolic stability (extraction ratio) rat [12]: 0.38
hepatic microsome metabolic stability (extraction ratio) human [13]: 0.21
Compound: 3-Amino-1-(2-(4-fluorophenyl)-3-(4-fluorophenylamino)-5,6-dihydroimidazo[1,2-a]pyrazin-7(8H)-yl)propan-1-one [Compound 29]
IC50 ([9]; read-out: P. falciparum strain IC50 3D7): 30 nM
IC50 ([10]; read-out: P. falciparum strain IC50 W2): 23 nM

PAMPA (% absorbed): low
Caco-2 A–B [8]: 0.56 cm/s × 10^6
Caco-2 B–A [8]: 2.32 cm/s × 10^6
Compound: NCC(=O)N1CCn2c(nc(-c3cccc(F)c3)c2Nc2ccc(F)cc2)C1 [Compound 18, 2-Amino-1-(3-((4-fluorophenyl)amino)-2-(3-fluorophenyl)-5,6-dihydroimidazo[1,2-a]pyrazin-7(8H)-yl)ethanone]

Compound: NC(Cc1ccccc1)C(=O)N1CCn2c(nc(-c3ccccc3)c2Nc2ccc3c(c2)OCO3)C1 (stereo not drawn) [Compound 1b, 2-Amino-1-(3-(benzo[d][1,3]dioxol-5-ylamino)-2-phenyl-5,6-dihydroimidazo[1,2-a]pyrazin-7(8H)-yl)-3-phenylpropan-1-one]
IC50 [9, 15]: 119 nM
IC50 [10, 16]: 122 nM
cyotoxicity Huh7 ([1]; HTS DMSO stock solutions): > 10 µM
cyotoxicity Huh7 [1, 17]: > 79 µM

Compound: CC(C)(N)C(=O)N1CCn2c(nc(-c3ccc(F)cc3)c2Nc2ccc(F)cc2)C1 [Compound 11, 2-Amino-1-(2-(4-fluorophenyl)-3-(4-fluorophenylamino)-5,6-dihydroimidazo[1,2-a]pyrazin-7(8H)-yl)-2-methylpropan-1-one]
cytotoxicity TC50 Huh7 [1]: greater than 12 μM
cytotoxicity TC50 CHO [3]: greater than 12 μM
cytotoxicity TC50 HEp2 [4]: greater than 12 μM
cytotoxicity TC50 HeLa [5]: greater than 12 μM
maximum tolerable dose test [14]: no gross effects at doses up to 500 mg/kg
PAMPA (% absorbed): 81 % absorbed
Caco-2 A–B [8]: 3.05 cm/s × 10^6
Caco-2 B–A [8]: 8.38 cm/s × 10^6
